Structures can show the parent of a compound that is named as a salt. Where two headings read alike, the source gives them in different places.
Columns and labels:
MES-SA cells = assay: PrestoBlue viability assay, MES-SA cells
MES-SA/Dx5 cells = assay: PrestoBlue viability assay, MES-SA/Dx5 cells (MDR, P-gp positive); conditions: for SR: selectivity ratio MES-SA vs MES-SA/Dx5, without TQ; for SR_TQ: selectivity ratio MES-SA vs MES-SA/Dx5, with TQ; for SR (MES-SA_TQ / Dx5_TQ) (values in parentheses): presence of 1 μM TQ
[1] = UV-visible spectrophotometric titrations (pKa); format: physicochemical; conditions: water with 0.2% (v/v) DMSO, 25 °C
Protocol: Spectrophotometrical determination of pKa values was performed as previously reported.[20],[50] An Agilent Cary 8454 diode array spectrophotometer was used to record the UV–visible spectra in the interval 200–800 nm. The path length was between 1 and 5 cm. The spectrophotometric titrations were performed in water with 0.2% (v/v) DMSO on samples containing the compounds at 2–50 μM in the pH range from 2 to 11.5 at 25.0 ± 0.1 °C at an ionic strength of 0.10 M (KCl). Proton dissociation constants and the individual spectra of the species in the different protonation states were calculated with the computer program PSEQUAD.[62]

A431 cells = assay: PrestoBlue viability assay, A431 cells
A431-B1 cells = assay: PrestoBlue viability assay, A431-B1 (A431-ABCB1) cells
[2] = Homo sapiens, MES-SA, 72 h, read-out: IC50 / μM MES-SA, absence of TQ, 72 h incubation
[3] = Homo sapiens, MES-SA/Dx5, 72 h, read-out: IC50 / μM MES-SA/Dx5, absence of TQ, 72 h incubation
[4] = Homo sapiens, MES-SA, read-out: pIC50 value MES-SA, MES-SA cells, without TQ (converted)
[5] = Homo sapiens, MES-SA/Dx5, read-out: pIC50 value MES-SA/Dx5, MES-SA/Dx5 cells, without TQ (converted)
[6] = Homo sapiens, MES-SA, read-out: IC50 / μM MES-SA (values in parentheses), presence of 1 μM P-gp inhibitor tariquidar (TQ)
[7] = Homo sapiens, MES-SA, read-out: pIC50 value MES-SA+TQ, MES-SA cells, with TQ (converted)
[8] = 0.2% DMSO, I = 0.10 M KCl, read-out: pKa (OH), experimentally determined
[9] = piperidinium / pyrrolidinium / morpholinium N, read-out: pKa (other; N+amH alkylamine nitrogen), experimentally determined
[10] = quinolinium nitrogen, I = 0.10 M KCl, read-out: pKa (NquinH+), experimentally determined
[11] = Homo sapiens, A-431, 72 h, read-out: IC50 / µM A431, 72 h incubation
[12] = Homo sapiens, A-431, read-out: pIC50 A431, SARM figure (converted)
[13] = Homo sapiens, MES-SA/Dx5, read-out: IC50 / μM MES-SA/Dx5 (values in parentheses), presence of 1 μM P-gp inhibitor tariquidar (TQ)
[14] = Homo sapiens, MES-SA/Dx5, read-out: pIC50 value MES-SA/Dx5 + TQ, MES-SA/Dx5 cells, with TQ (converted)
[15] = 72 h, read-out: IC50 / µM A431-B1, 72 h incubation
[16] = read-out: pIC50 A431-B1, SARM figure (converted)
[17] = fraction of IC50 in P-gp negative vs positive cells
[18] = read-out: IC50 / μM MES-SA, absence of TQ, 72 h incubation
[19] = read-out: IC50 / μM MES-SA/Dx5, absence of TQ, 72 h incubation
[20] = Homo sapiens, MES-SA, read-out: pIC50 MES-SA, absence of TQ (converted), SARM figure
[21] = read-out: pKa (NpiperaziniumH+ closer to quinoline ring), experimentally determined
[22] = read-out: pKa (NpiperaziniumH+ at methyl / N-ethyl), experimentally determined

| SMILES | IC50 (MES-SA cells; [2]) [µM] | melting point [°C] | IC50 (MES-SA/Dx5 cells; [3]) [µM] | IC50 (MES-SA cells; [4]) [µM] | IC50 (MES-SA/Dx5 cells; [5]) [µM] | SR (MES-SA/Dx5 cells) | IC50 (MES-SA cells; [6]) [µM] | IC50 (MES-SA cells; [7]) [µM] | pKa [1, 8] | pKa [1, 9] | pKa [1, 10] | IC50 (A431 cells; [11]) [µM] | IC50 (A431 cells; [12]) [µM] | IC50 (MES-SA/Dx5 cells; [13]) [µM] | IC50 (MES-SA/Dx5 cells; [14]) [µM] | SR_TQ (MES-SA/Dx5 cells) | IC50 (A431-B1 cells; [15]) [µM] | IC50 (A431-B1 cells; [16]) [µM] | also measured |
| --- | --- | --- | --- | --- | --- | --- | --- | --- | --- | --- | --- | --- | --- | --- | --- | --- | --- | --- | --- |
| CN1CCN(Cc2ccc3ccccc3c2O)CC1 [Compound 70, 2-((4-Methylpiperazin-1-yl)methyl)naphthalen-1-ol] | > 100 | 79 to 81 | > 100 | – | – | – | – | – | – | – | – | – | – | – | – | – | – | – | – |
| Oc1c(C(c2cccnc2)N2CCCCC2)ccc2cccnc12 (centres unmarked) [Compound 92, 7-((Piperidine-1-yl)(pyridin-3-yl)methyl)quinolin-8-ol] | 13.65 ± 0.12 | 178 to 179 | 8.58 ± 0.38 | 13.5 | 8.51 | 1.59 | – | – | – | – | – | – | – | – | – | – | – | – | – |
| CN1CCN(Cc2cnc3ccccc3c2O)CC1 [Compound 71, 3-((4-Methylpiperazin-1-yl)methyl)quinolin-4-ol] | 94.9 ± 2.02 | 164 to 166 | 91 | 95.5 | 91.2 | 1.04 | – | – | – | – | – | – | – | – | – | – | – | – | – |
| CC(C)OCc1cc(CN2CCCCC2)c(O)c2ncccc12 [Compound 24] | 6.03 ± 0.29 | – | 0.48 ± 0.04 | 6.03 | 0.479 | 12.57 | 5.76 ± 0.15 | 5.75 | 7.66 ± 0.03 | > 11 | 2.43 ± 0.03 | 7.53 ± 1 | 7.41 | 4.37 ± 0.24 | 4.37 | 1.32 | 1.91 ± 0.18 | 1.91 | – |
| CN1CCN(Cc2ccc3cccnc3c2O)CC1 [Compound 34, 7-((4-Methylpiperazin-1-yl)methyl)quinolin-8-ol] | 16.7 ± 1.86 | 120 to 122 | 8.67 ± 1.69 | 16.6 | 8.51 | 1.93 | 15.5 ± 0.19 | 15.5 | – | – | – | 25.5 ± 1.98 | 25.7 | 14.1 | – | 1.1 | 11.3 ± 0.95 | 11.2 | SR (MES-SA_TQ / Dx5_TQ) (values in parentheses) (MES-SA/Dx5 cells; [17]): 1.10 |
| Oc1c(CN2CCc3ccccc3C2)cc(Br)c2cccnc12 [Compound 81, 5-Bromo-7-((3,4-dihydroisoquinolin-2(1H)-yl)methyl)quinolin-8-ol] | 2.23 ± 0.15 | 156 to 159 | 0.34 ± 0.05 | 2.29 | 0.363 | 6.23 | 2.45 | 1.78 | – | – | – | – | – | 1.48 | – | 1.82 | – | – | SR (MES-SA / MES-SA/Dx5) (MES-SA/Dx5 cells; fraction of IC50 in P-gp negative vs positive cells, absence of TQ): 6.50; SR (MES-SA_TQ / Dx5_TQ) (values in parentheses) (MES-SA/Dx5 cells; [17]): 1.66 |
| CCOCc1cc(CN2CCCC2)c(O)c2ncccc12 [Compound 18] | 8.61 ± 1.31 | – | 0.93 ± 0.18 | 8.51 | 0.912 | 9.27 | 8.73 ± 0.54 | 8.71 | 7.89 ± 0.03 | 11.21 ± 0.03 | 2.49 ± 0.03 | 35.2 ± 11.5 | 33.1 | 5.25 ± 0.18 | 5.25 | 1.66 | 5.92 ± 2.14 | 5.62 | – |
| Oc1c(C(c2ccccc2)N2CCCCC2)cc(Cl)c2cccnc12 (centres unmarked) [Compound 97] | 14.9 ± 0.18 | – | 14 ± 0.15 | 14.8 | 13.8 | 1.06 | – | – | 6.46 ± 0.03 | 10.75 ± 0.03 | 1.7 ± 0.1 | – | – | – | – | – | – | – | – |
| Oc1c(CN2CCCCC2)cc(Br)c2cccnc12 [Compound 20, 5-Bromo-7-(piperidin-1-ylmethyl)quinolin-8-ol] | 1.79 ± 0.16 | – | 0.17 ± 0.02 | 1.78 | 0.166 | 10.67 | 1.71 | 1.7 | 7.16 ± 0.03 | > 11 | 1.8 ± 0.1 | 6.91 ± 1.37 | 6.76 | 1.32 ± 0.08 | 1.32 | 1.29 | 2.16 ± 0.35 | 1.58 | IC50 (MES-SA cells; [18]): 1.78 ± 0.17 µM; IC50 (MES-SA/Dx5 cells; read-out: IC50 / μM MES-SA/Dx5 (values in parentheses), presence of 1 μM P-gp inhibitor tariquidar (TQ)): 1.33 µM; IC50 (MES-SA/Dx5 cells; [19]): 0.16 ± 0.02 µM |
| Oc1c(CN2CCCCC2)cc(Cl)c2cccnc12 [Compound 19] | 2.49 ± 0.39 | – | 0.29 ± 0.05 | 2.45 | 0.282 | 8.71 | 3.38 | 3.39 | 5.8 ± 0.03 | > 11 | < 2 | 6.67 ± 1.69 | 6.46 | 2.58 | 2.57 | 1.31 | 1.69 ± 0.27 | 1.66 | IC50 (MES-SA cells; [20]): 2.24 µM |
| Oc1cc2c(cc1O)CN(Cc1ccc3cccnc3c1O)CC2 (as salt: hydrochloride) [Compound 82, 2-((8-Hydroxy-quinolin-7-yl)methyl)-1,2,3,4-tetrahydroisoquinoline-6,7-diol Hydrochloride] | – | 203 to 206 | – | – | – | – | – | – | – | – | – | – | – | – | – | – | – | – | – |
| Oc1c(CN2CCN(c3ccccc3)CC2)cc(Cl)c2cccnc12 [Compound 38] | 3.42 ± 1.17 | – | 0.59 ± 0.26 | 3.24 | 0.537 | 5.84 | 3.57 ± 1.18 | 3.39 | 6.21 ± 0.03 | – | 1.7 ± 0.1 | 7.38 ± 1.23 | 7.24 | 1.87 ± 0.75 | 1.74 | 1.91 | 6.31 ± 2.64 | 5.75 | pKa [1, 21]: 10.1 ± 0.03 |
| CCN1CCN(Cc2ccc(O)c3ncccc23)CC1 [Compound 55] | 17.7 ± 3.14 | – | 21.38 ± 0.1 | 17.4 | 21.4 | 0.83 | – | – | 9.67 ± 0.03 | – | 4.94 ± 0.03 | – | – | – | – | – | – | – | pKa [1, 22]: 5.48 ± 0.03; pKa [1, 21]: 2.6 ± 0.03 |
| Oc1c(C(c2ccccn2)N2CCOCC2)cc(Cl)c2cccnc12 (centres unmarked) [Compound 108] | 40 ± 9.54 | – | 24.7 ± 4.26 | 38.9 | 24.5 | 1.62 | – | – | 9.42 ± 0.03 | 5.53 ± 0.03 | 1.89 ± 0.03 | – | – | – | – | – | – | – | pKa ([1]; read-out: pKa (NpyridiniumH+), experimentally determined): < 2 |
| CN1CCN(Cc2cc(Cl)c3cccnc3c2O)CC1 [Compound 9] | 5.86 ± 0.98 | – | 1.59 ± 0.27 | 5.37 | 1.86 | 2.84 | 5.14 | 5.13 | 9.63 ± 0.03 | – | 3.56 ± 0.03 | 17 ± 1.04 | 14.5 | 4.3 | 4.27 | 1.19 | 3.55 ± 0.5 | 6.31 | IC50 (MES-SA cells; [20]): 5.75 µM; IC50 (MES-SA cells; Homo sapiens, MES-SA, read-out: pIC50 MES-SA_TQ, presence of 1 μM TQ (converted), SARM figure): 10 µM; IC50 (MES-SA cells; [18]): 5.39 ± 0.47 µM; pKa [1, 22]: 5.61 ± 0.03; IC50 (A431 cells; read-out: IC50 / µM A431, 72 h incubation): 15.9 ± 7.44 µM; IC50 (MES-SA/Dx5 cells; Homo sapiens, MES-SA/Dx5, read-out: pIC50 Dx5, absence of TQ (converted), SARM figure): 1.55 µM; IC50 (MES-SA/Dx5 cells; Homo sapiens, MES-SA/Dx5, read-out: pIC50 Dx5_TQ, presence of 1 μM TQ (converted), SARM figure): 6.76 µM; IC50 (MES-SA/Dx5 cells; [19]): 1.9 ± 0.37 µM; IC50 (A431-B1 cells; read-out: IC50 / µM A431-B1, 72 h incubation): 6.67 ± 2.4 µM |
| Oc1c(CN2CCCC2)cc(Br)c2cccnc12 [Compound 16, 5-Bromo-7-(pyrrolidin-1-ylmethyl)quinolin-8-ol] | 3.9 ± 0.87 | 119 to 121 | 0.41 ± 0.14 | 3.8 | 0.389 | 9.45 | 4.58 ± 1.05 | 4.47 | – | – | – | 4.32 ± 0.39 | 4.27 | 3.14 ± 0.89 | – | 1.46 | 1.54 ± 0.51 | 1.45 | – |

Reference: PMC9189845, “Structure–Activity Relationships of 8-Hydroxyquinoline-Derived Mannich Bases with Tertiary Amines Targeting Multidrug-Resistant Cancer” (Journal of Medicinal Chemistry, 2022)
